The values that follow come from patent publication US7307099B2, “4-(1-(sulfonyl)-1h-indol-2-yl)-4-(hydroxy)-cyclohexa-2,5-dienone compounds and analogs thereof as therapeutic agents” (Cancer Research Technology Limited, priority 2002, dated 2007).

Like-named read-outs stand apart in the source and are kept apart here.

Data set [1] relates to 60 human cancer cell lines. Kind of data set: NCI in vitro 60 cell panel (48 hour drug exposure). In kind it is cell-based. Conditions: for LC50: read-out: Mean log10 LC50 (converted). How it is done:
(§1) Compounds were tested for in vitro activity (48 hour drug exposure) across 60 human cancer cell lines through the National Cancer Institute (NCl) Developmental Therapies Screening Program (Boyd et al., 1995).

Data set [2] deals with HCT-116 (colon). Kind of data set: NCI in vitro 60 cell panel, HCT-116. In kind it is cell-based. Conditions: Homo sapiens, read-out: Most Senstive Cells Lines mean log10 LC50 (converted). How it is done:
as §1

Data set [3] has as its system LOX IMVI (melanoma). Kind of data set: NCI in vitro 60 cell panel, LOX IMVI. In kind it is cell-based. Conditions: Homo sapiens, read-out: Most Senstive Cells Lines mean log10 LC50 (converted). How it is done: as §1
In data set [4] the test system is HCT 116 colon carcinoma. Nature of the data set: Growth inhibitory assay (MTT, 72 hour exposure), HCT 116. Conditions: Homo sapiens, HCT 116, MTT. In kind it is cell-based. How it is done:
(§2) Compounds were prepared as 10 mM top stocks, dissolved in DMSO, and stored at 4° C., protected from light, for a maximum period of 4 weeks. Human derived cell lines (HCT 116, HT29 colon carcinoma) were routinely cultivated at 37° C. in an atmosphere of 5% CO2 in RPMI 1640 medium supplemented with 2 mM L-glutamine and 10% fetal calf serum and subcultured twice weekly to maintain continuous logarithmic growth. Cells were seeded into 96-well microtiter plates at a density of 5×10^3 per well and allowed 24 hours to adhere before drugs were introduced (final concentration 0.1 nM-100 μM, n=8). Serial drug dilutions were prepared in medium immediately prior to each assay. At the time of drug addition and following 72 hour exposure, MTT was added to each well (final concentration 400 µg/mL). Incubation at 37° C. for 4 hr allowed reduction of MTT by mitochondrial dehydrogenase to an insoluble formazan product. Well contents were aspirated and formazan solubilized by addition of DMSO:glycine buffer (pH 10.5) (4:1). Absorbance was measured using an Anthos Labtec systems plate reader at 550 nm, and used as a measure of cell viability; thus cell growth or drug toxicity was determined.

In data set [5] the test system is HT29 colon carcinoma. Nature of the data set: Growth inhibitory assay (MTT, 72 hour exposure), HT29. In kind it is cell-based. Conditions: Homo sapiens, HT 29, MTT. The procedure:
as §2

Data set [6] deals with RXF 393 (renal). Nature of the data set: NCI in vitro 60 cell panel, RXF 393. In kind it is cell-based. Conditions: Homo sapiens, read-out: Most Senstive Cells Lines mean log10 LC50 (converted). The procedure: as §1
For data set [7], the system named is CAKI-1 (renal). Nature of the data set: NCI in vitro 60 cell panel, CAKI-1. The class given is cell-based. Conditions: Homo sapiens, read-out: Most Senstive Cells Lines mean log10 LC50 (converted). How it is done:
as §1

The nature of data set [8]: Maximum tolerated dose in mice. Conditions: mouse, in vivo, daily (×5) schedule. How it is done: (§3) The in vivo activity of SIQ-01 was studied. The maximum tolerated dose of SIQ-01 in mice is 30 mg/kg on a daily (×5) schedule. Combination treatment of SIQ-01 and cisplatin was active against the HCT116 colon carcinoma tumour when administered to tumour-bearing mice (15 mg SIC-01/kg administered by intraperitoneal injection on days 1-5 and 8-10; 4 mg cisplatin/kg administered subcutaneously on days 1 and 8), and gave a maximum T/C (Test/Control) of 49%. Treatment with cisplatin alone (same regimen) gave a maximum T/C (Test/Control) of 56%.

The test system of data set [9] is HCT116 colon carcinoma tumour. Kind of data set: HCT116 colon carcinoma tumour in tumour-bearing mice. The class given is in vivo. The procedure: as §3
The subject of data set [10] is UO-31 (renal). Nature of the data set: NCI in vitro 60 cell panel, UO-31. In kind it is cell-based. Conditions: Homo sapiens, read-out: Most Senstive Cells Lines mean log10 LC50 (converted). The procedure:
as §1

Data set [11] concerns U251 (CNS cancer). Nature of the data set: NCI in vitro 60 cell panel, U251. Conditions: Homo sapiens, U-251, read-out: Most Senstive Cells Lines mean log10 LC50 (converted). The class given is cell-based. How it is done: as §1
The conditions of data set [12]: in fetal calf serum; cited from earlier work.
In data set [13] the target is T1, Thioredoxin/Thioredoxin Reductase (Tx/TR) (Homo sapiens, UniProt P10599).
T1 construct: was purified from human placenta as previously described; made in house; host or cells: hTrx: Escherichia coli; TR: purified from human placenta tissue
T1 sequence (P10599 2-105 limits assumed): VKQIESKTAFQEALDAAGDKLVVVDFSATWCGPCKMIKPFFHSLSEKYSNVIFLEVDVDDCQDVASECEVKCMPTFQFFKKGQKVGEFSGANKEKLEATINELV
Kind of data set: Thioredoxin/thioredoxin reductase-catalysed reduction of insulin. The class given is biochemical. Conditions: 30 min at 37° C. How it is done:
Assays were performed using methods analogous to those described in Kirkpatrick et al., 1999 and Kunkel et al., 1997.
[…] (specific activity 43.6 μmol NADPH reduced/min/mg protein at 21° C.) was purified from human placenta as previously described (Oblong et al., 1993). Recombinant hTrx was expressed in Escherichia coli and purified as previously described (Gasdaska et al., 1994). The Trx and TR were stored at −20° C. with 5 mM dithiothreitol (DTT) which was removed before use with a desalting column (PDIO, Pharmacla, Uppsala, Sweden).
Microtitre plate colorimetric assays, based on the increase in absorbance at 405 nm which occurs as dithionitrobenzoic acid (DTNB) is reduced by the enzyme-mediated transfer of reducing equivalents from NADPH, were used to measure TR/Trx-dependent insulin-reduction and TR activity (see, e.g., Kunkel et al., 1997).
Thioredoxin reductase/thioredox […] insulin reducing activity was measured in an incubation with a final volume of 60 μL containing 100 mM HEPES buffer, pH 7.2, 5 mM EDTA (HE buffer), 1 mM NADPH, 1.0 μM thioredoxin reductase, 0.8 μM thioredoxin, and 2.5 mg/ml bovine insulin in flat-bottom 96-well microtitre plates. […] The reaction was stopped by the addition of 100 μL of 6 M guanidine HCl, 50 mM Tris, pH 8.0, and 10 mM DTNB, and the absorbance measured at 405 nm.

For data set [14], the system named is ACHN (renal). Kind of data set: NCI in vitro 60 cell panel, ACHN. Conditions: Homo sapiens, read-out: Most Senstive Cells Lines mean log10 LC50 (converted). The class given is cell-based. How it is done: as §1
Where [15] appears, read: mean across 60 cell lines, 48 hour drug exposure.
Where [16] appears, read: mean across 60 cell lines, 48 hour drug exposure, read-out: mean log10 GI50 (converted).
[17] abbreviates: 60 cell, as in Table 3, read-out: Mean GI50.

The LC50 is the concentration that kills 50% of the test population. For orientation: GI50 means the concentration giving 50% growth inhibition. The IC50 is the point on the concentration scale where inhibition reaches its midpoint. Consider `O=C1C=CC(O)(c2cc3ccccc3n2S(=O)(=O)c2ccccc2)c2ccccc21` (stereo not drawn) [SIQ-10, 4-(1-benzenesulfonyl-1H-indol-2-yl)-4-hydroxy4H-naphthalen-1-one], for which, in [1] (setting [15]), the 50% lethal concentration (LC50) is 7760 nM. In data set [1] (setting [16]), the 50% growth inhibitory concentration (GI50) was 447 nM. Moreover, the CC50 was 794 nM in [2] and 776 nM in data set [3]. In addition, the concentration for half-maximal inhibition (IC50) in [4] was 205 nM; in [5], 444 nM.

On to `CC(C)c1cc(C(C)C)c(S(=O)(=O)n2c(C3(O)C=CC(=O)C=C3)cc3ccccc32)c(C(C)C)c1` [SIQ-09], for which the LC50 in data set [1] (setting [15]) was 11200 nM. Besides, in data set [1] (setting [16]), the GI50 was 427 nM. In addition, the figures for the CC50 in [2] and in data set [6] were 550 nM and 776 nM, respectively.

As for `O=C1C=CC(O)(c2cc3cc(F)ccc3n2S(=O)(=O)c2ccccc2)C=C1` [SIQ-03, 4-(1-benzenesulfonyl-5-fluoro-1H-indol-2-yl)-4-hydroxy-cyclohexa-2,5-dienone], the concentration for 50% growth inhibition (GI50) in data set [1] (setting [17]) is 527 nM; in [1] (setting [16]), 66.1 nM. Moreover, the median lethal concentration (LC50) in [1] (setting [15]) was 3240 nM. The CC50 in data set [2] is 50.1 nM; in data set [3], 63.1 nM. The IC50 was 68 nM in data set [4] and 347 nM in [5].

What is called MTD is the largest dose that counted as tolerated. Regarding `O=C1C=CC(O)(c2cc3ccccc3n2S(=O)(=O)c2ccccc2)C=C1` [SIQ-01, 4-(1-benzenesulfonyl-1H-indol-2-yl)-4-hydroxy-cyclohexa-2,5-dienone], the GI50 was 152 nM in data set [1] (setting [17]) and 38.9 nM in data set [1] (setting [16]). The 50% lethal concentration (LC50) in data set [1] (setting [15]) is 2950 nM. The CC50 in data set [2] is 33.1 nM; in data set [7] it was 52.5 nM. The IC50 in data set [4] was determined as 86 nM; in [5] it was 259 nM. Besides, the maximum tolerated dose (MTD) at 5 days in [8] came to 30 mg/kg. Further, the “maximum T/C (Test/Control)” value in data set [9] (combination with cisplatin: 15 mg/kg i.p. days 1-5 and 8-10, 4 mg cisplatin/kg s.c. days 1 and 8) stood at 49%.

In the case of `O=C1C=CC(O)(c2cc3ccccc3n2S(=O)(=O)c2ccc(F)cc2)C=C1` [SIQ-06, 4-[1-(4-fluoro-benzenesulfonyl)-1H-indol-2-yl]-4-hydroxy-cyclohexa-2,5-dienone], the LC50 in data set [1] (setting [15]) was 7760 nM. In addition, the concentration for 50% growth inhibition (GI50) in [1] (setting [16]) was 234 nM. In addition, the CC50 in data set [2] is 363 nM; in data set [10], 631 nM.

Consider `O=C1C=CC(O)(c2cc3ccccc3n2S(=O)(=O)c2ccc3ccccc3c2)C=C1` [SIQ-07], for which the median lethal concentration (LC50) in data set [1] (setting [15]) was 5620 nM. Also, the GI50 in data set [1] (setting [16]) was 191 nM. The CC50 in data set [2] is 372 nM; in data set [11], 513 nM. In addition, the IC50 in data set [4] is 193 nM; in data set [5], 274 nM.

Regarding `N.N.[Cl][Pt][Cl]` [cisplatin, reference compound], the “maximum T/C (Test/Control)” value in data set [9] (cisplatin alone, 4 mg/kg s.c. days 1 and 8) worked out at 56%.

Broadly, the half-life is how long it takes for the measured level to halve. Take `O=CN/C=C/c1cc(O)ccc1O` [erbstatin]: in data set [12], the half-life was less than 30 min.

For `Cc1ccc(S(=O)(=O)n2c(C3(O)C=CC(=O)c4ccccc43)cc3ccccc32)cc1` (stereo not drawn) [SIQ-11, 4-hydroxy 4-[1-(toluene-4-sulfonyl)-1H-indol-2-yl]-4H-naphthalen-1-one], the GI50 in data set [1] (setting [17]) is greater than 1000 nM; in data set [1] (setting [16]), 389 nM. Besides, the median lethal concentration (LC50) in [1] (setting [15]) is 5620 nM. The CC50 in [2] was 490 nM; in data set [3] it was 724 nM. The IC50 in [4] was 155 nM; in data set [5], 391 nM.

`COc1ccc(S(=O)(=O)n2c(C3(O)C=CC(=O)C=C3)cc3ccccc32)cc1` [SIQ-05]: the LC50 in data set [1] (setting [15]) was 6310 nM. The GI50 in [1] (setting [16]) was 162 nM. In addition, the values for the CC50 in data set [2] and in data set [3] were 112 nM and 380 nM, respectively. Moreover, the IC50 in data set [4] is 203 nM; in data set [5] it was 420 nM.

Consider `Cc1ccc(S(=O)(=O)n2c(C3(O)C=CC(=O)C=C3)cc3ccccc32)cc1` [SIQ-04], for which the GI50 in data set [1] (setting [17]) is less than 100 nM; in [1] (setting [16]) it was 112 nM. In addition, the LC50 in data set [1] (setting [15]) is 7240 nM. Further, the CC50 is 47.9 nM in [2] and 234 nM in [3]. Besides, the half-inhibitory concentration (IC50) was 36 nM in data set [4], 206 nM in data set [5] and less than 100000 nM in data set [13].

In the case of `COc1ccc2c(c1)cc(C1(O)C=CC(=O)C=C1)n2S(=O)(=O)c1ccccc1` [SIQ-02, 4-(1-benzenesulfonyl-5-methoxy-1H-indol-2-yl)-4-hydroxy-cyclohexa-2,5-dienone], the LC50 in data set [1] (setting [15]) is 6170 nM. Also, the concentration for 50% growth inhibition (GI50) in data set [1] (setting [16]) was 135 nM. Moreover, the CC50 was 447 nM in data set [14] and 468 nM in [3].
